Source: patent US10815460B2, “Three-dimensional differentiation of epiblast spheroids to kidney organoids models stage-specific epithelial physiology, morphogenesis, and disease” (THE BRIGHAM AND WOMEN'S HOSPITAL, INC., priority 2015, dated 2020)
Entries after “also recorded” stand apart in the source; their conditions may differ.

Columns and labels:
Assay type in all cases: cell-based, human
[1] = tested on: hPSC spheroids; test: hPSC spheroid cavity formation (lumenogenesis) in 3D sandwich culture
Excerpt: Cell lines included H9 (WA09), BJ, HDFn, hLR5, hfib2-iPS4, and hfib2-iPS5 (human) and J1, R1, and v6 (mouse). Cells were maintained feeder-free on 3% Reduced Growth Factor GelTrex™ (Life Technologies) for at least one passage in media (mTeSR1 for hPSCs; […] supplement+2i in for mESCs; hESC conditioned media (CM)+leukemia inhibitory factor (LIF)+dox for hLR5 iPSCs) and dissociated with Accutase® or TrypLE™. LD-iPSCs were derived from native hLR5 iPSCs by withdrawing LIF and doxycycline and substituting with FGF2. For thin gel sandwich colonies, cells were plated at 60,000 (primed) or 30,000 (native) cells/well of a 24-well plate or 4-well chamber slide pre-coated with GelTrex™ in media supplemented with 10 μM Rho-kinase inhibitor Y27632 (StemGent). The following day the media was replaced with 500 μL 1.5% GelTrex™ in mTeSR1. Media was changed after 24 hours. […]
For fluorescence intensity quantifications, images were taken in a single imaging session and at identical exposures and processed identically. The number of cavitated colonies (ellipsoid with lumen) versus flat colonies (non-ellipsoid or without a lumen) was scored manually in phase contrast images of living cells, in which lumens were discerned more easily than in fixed samples. For apoptosis, cleaved caspase-3 expression was scored manually, confirmed by nuclear condensation, and divided by the total number of nuclei per wide-field epifluorescent image. […] For each colony, the summed ZO-1 expressing area was expressed as a percentage of the total surface area and then averaged. To quantify intensities, line scans of equal length were drawn through randomly selected structures imaged with identical exposures to obtain raw fluorescence values in NIS Elements software (Nikon). […] For CHIR-induced differentiation, […] individual cells were identified in low-magnification immunofluorescence images using Cell Profiler 2.0 and fluorescence intensities were measured automatically. […] Immunoblots were quantified using the ImageJ Gel Analyzer. […]

[2] = tested on: hPSCs; test: BRY immunofluorescence in hPSC cultures treated with CHIR in mTeSR1; settings: 5˜M CHIR, 3D versus 2D cultures plated side-by-side
Excerpt: FIG. 2. Cavitated spheroids represent epiblast. (a) Schematic of serial passaging experiment. (b) Representative brightfield images of hPSCs in 3D cultures which were dissociated (colored frames) and passaged (matching colored arrows). Dashed arrows represent serial passages in the 3D condition. […] (c) Hematoxylin and eosin-stained sections of teratomas generated from hPSC serial 3D passages p3, p6, and p9 showing pigmented epithelium (ectoderm), cartilage (mesoderm), and glandular epithelium (endoderm). (d) Cell number (average of duplicate counts for each time point, or AVG of all time points) in 2D and 3D cultures 72 hours after plating. […] (h) Morphology and (i) quantification (n=3) of hPSC colonies cultured in mTeSR1 plus CHIR, compared to controls in mTeSR1 alone. […]
For fluorescence intensity quantifications, images were taken in a single imaging session and at identical exposures and processed identically. The number of cavitated colonies (ellipsoid with lumen) versus flat colonies (non-ellipsoid or without a lumen) was scored manually in phase contrast images of living cells, in which lumens were discerned more easily than in fixed samples. For apoptosis, cleaved caspase-3 expression was scored manually, confirmed by nuclear condensation, and divided by the total number of nuclei per wide-field epifluorescent image. […] Immunoblots were quantified using the ImageJ Gel Analyzer. […]

[3] = tested on: tubular organoids; test: Transport of fluorescent cargoes in tubular organoids
Method: (§1) To test permeability, media was supplemented with 20 mM HEPES plus Lucifer Yellow™ carbohydrazide potassium salt (Invitrogen, 38 μM) and Rhodamine-8 isothiocyanate dextran (Sigma, 0.5 μM), and imaged by confocal microscopy. For microinjection, 5 μM rhodamine-conjugated dextran solution in mTeSR1 was diluted 1:1 with Phenol Red Solution (0.5%, Sigma) for visualization. 2 nl was microinjected via a pulled glass capillary microneedle on a Nanoject-2 micromanipulator, and monitored in real-time by wide-field epifluorescence. For TEER, 50,000 hPSCs were plated on 24-well transwell plates (Corning) pre-coated with dilute […]™. […] TEER was measured using an EVOM 2™ device (World Precision Instruments).
as §1, with “Rhodamine-B” for “Rhodamine-8”, “0.5” for “0.5 μM),”, “5” for “5 μM”

[4] = tested on: kidney organoids; test: KIM-1 induction in kidney organoids treated with nephrotoxic drugs
Excerpt: (§2) FIG. 27. […] (a) Co-localization of KIM-1 antibody AKG7 with LTL or (b) with a second KIM-1 antibody (KIMlab2). […] (e) Phase contrast time course of tubules in culture. After 120 days of culture (d120), tubules were fixed and stained for LTL. (f) Whole well of a 96-well plate showing kidney organoids. Scale bars, 50 μm. Error bars, s.e.m.

[5] = tested on: epiblast spheroids; test: Epiblast spheroids treated with titrations of cisplatin and gentamicin (KIM-1, toxicity)
Excerpt: FIG. 20. […] Scale bars, 50 μm.
as §2

## Cc1c[nH]c(-c2cnc(NCCNc3ccc(C#N)cn3)nc2-c2ccc(Cl)cc2Cl)n1 [CHIR]
[1]; CHIR added at the time of sandwiching, in mTeSR1
  spheroid formation: inhibited spheroid formation in a dose-dependent manner
[2]
  BRY expression: induced higher levels of BRY expression in 3D cultures than in 2D cultures

## O=C(O)CN(CCN(CC(=O)O)CC(=O)O)CC(=O)O [EDTA]
[3]; 0.5 mM EDTA for one hour
  luminal RD signal intensity in loaded organoids: decreased

## C/C1=C/C(=O)O[C@@H]2C[C@@H](CC[C@H](C)/C=C\CC1)O[C@@](O)([C@@H]1CSC(=O)N1)C2 [latrunculin (Lat)B, Latrunculin B]
[3]; co-incubation, 2 μM LatB
  effect on RD accumulation in tubular organoids: significantly reduced RD accumulation

## gentamicin
[4]; increasing concentrations, 36-48 hours, immunofluorescence
  KIM-1 expression in organoid tubules: expressed apical kidney injury molecule-1 (KIM-1); also recorded: observed at moderate, sub-toxic doses
[4]; kidney organoids
  concentration sufficient to induce KIM-1 in kidney organoids: ~5000 µM
[5]
  sensitivity of epiblast spheroids to drug: exhibited dose-dependent sensitivity
[5]; any dose including 5 mM gentamicin
  KIM-1 upregulation in epiblast spheroids: did not upregulate KIM-1; also recorded: No KIM-1 expression is observed

## protamine sulfate [PS]
[1]; 8 μg/ml protamine sulfate
  3D cavity formation: strongly inhibited 3D cavity formation
  podocalyxin localization: mislocalization of podocalyxin to dispersed patches
